# Test system: stereotyped gnawing behaviour in mice induced by methylphenidate
# Assay: methylphenidate induced gnawing test in mice
# Format: in vivo
# Conditions: Mus musculus
row,SMILES,ED50 [mg/kg]
1,"COCOc1cc2c(cc1Cl)CCN(C)CC2c1cccc2ccoc12 (single isomer, unassigned; (+)) [Example 1, (+)-5-(7-benzofuranyl)-8-chloro-7-methoxymethyloxy-3-methyl-2,3,4,5-tetrahydro-1H-3-benzazepine]",2
2,"COCOc1cc2c(cc1Cl)CCN(C)CC2c1cccc2c1OCC2 (single isomer, unassigned; (+)) [Example 2, (+)-8-chloro-5-(2,3-dihydro-benzofuran-7-yl)-7-methoxy-methyloxy-3-methyl-2,3,4,5-tetrahydro-1H-3-benzazepine]",5.4

# — patent US5079243A, “Benzazepines” (Novo Nordisk A/S, priority 1989, dated 1992)
